{"source": "patent US6979664B1", "about": "“Composition for accelerating seed germination and plant growth” (Bios Agriculture Inc., priority 1998, dated 2005)", "assay_type_in_all_cases": "in vivo", "key": {"Beta vulgaris": {"tested_on": "Beta vulgaris", "assay": "seedling emergence at 25° C.", "from_the_text": "(§1) Plastic pots (7.5 cm dia) were filled with 15 g of autoclaved vermiculite. Seeds of corn (Zea mays—Poaceae), bean (Phaseolus vulgaris—Fabaceae), canola (Brassica napus—Brassicaceae), cucumber (Cucumis sativus—Cucurbitaceae), cantaloupe (Cucumis melo—Cucurbitaceae), cotton (Gossypium sp.—Malvaceae), lettuce (Lactuca sativa—Asteraceae), beet (Beta vulgaris—Chenopodiaceae), and soybean (Glycine max—Fabaceae), were placed at 2.5 cm deep at the rate of 5 or 10 seeds per pot. Pots were irrigated with either 25 mL of LCO solution at different concentrations (10^−6–10^−14M) or aqueous acetonitrile or water, as controls. Acetonitrile was included as one of the controls since LCO was purified in this solvent (see Example 3), after 4 days the pots were irrigated with 10 mL of water once every two days. Each treatment had 4 replications in a randomized block design. Pots were placed on a green house bench maintained at 25±2° C. with a day/night cycle 16/8 h and relative humidity of 70%, or in a growth chamber set at 15° C. with a 16:8 day/night cycle. […] As defined above, seedling emergence has occurred when growth of the plant can be observed above the rooting medium surface. The percent emergence was calculated. The data were analyzed with Statistical Analysis System, version 6.12 (SAS institute Inc. Cary, N.C., USA)."}, "Cucumis melo": {"tested_on": "Cucumis melo", "assay": "seedling emergence at 25° C.", "from_the_text": "as §1"}, "Glycine max": {"tested_on": "Glycine max", "assay": "seedling emergence at 25° C.", "from_the_text": "as §1"}, "Gossypium sp.": {"tested_on": "Gossypium sp.", "assay": "seedling emergence at 25° C.", "from_the_text": "as §1"}, "Letuca sativa": {"tested_on": "Letuca sativa", "assay": "seedling emergence at 25° C.", "from_the_text": "as §1"}, "Phaseolus vulgaris": {"tested_on": "Phaseolus vulgaris", "assay": "seedling emergence at 25° C.", "from_the_text": "as §1"}, "Zea mays": {"tested_on": "Zea mays", "assay": "seedling emergence at 25° C.", "from_the_text": "as §1"}, "Brassica napus": {"tested_on": "Brassica napus", "assay": "seedling emergence at 15° C.", "from_the_text": "as §1"}, "Cucumis sativus": {"tested_on": "Cucumis sativus", "assay": "seedling emergence at 15° C.", "from_the_text": "as §1"}}, "data": [{"smiles": "CCCCCCC=CCCCCCCCCCC(=O)NC1C(OC2C(CO)OC(OC3C(CO)OC(OC4C(CO)OC(OC5C(COC6OC(C)C(O)C(O)C6OC)OC(O)C(NC(C)=O)C5O)C(NC(C)=O)C4O)C(NC(C)=O)C3O)C(NC(C)=O)C2O)OC(CO)C(O)C1O", "note": "(stereo not shown) [LCO, NodBj-V(C18:1Δ11)]", "values": [{"measurement": "seedling emergence (%)", "setting": "Beta vulgaris; 10^−7 M", "result": 66.6, "unit": "%"}, {"measurement": "seedling emergence (%)", "setting": "Beta vulgaris; 10^−9 M", "result": 66, "unit": "b %"}, {"measurement": "seedling emergence (%)", "setting": "Beta vulgaris; 10^−11 M", "result": 86, "unit": "b %"}, {"measurement": "seedling emergence (%)", "setting": "Beta vulgaris; 10^−13 M", "result": 80, "unit": "b %"}, {"measurement": "seedling emergence (%)", "setting": "Cucumis melo; 10^−7 M", "result": 100, "unit": "b %"}, {"measurement": "seedling emergence (%)", "setting": "Cucumis melo; 10^−9 M", "result": 100, "unit": "b %"}, {"measurement": "seedling emergence (%)", "setting": "Cucumis melo; 10^−11 M", "result": 100, "unit": "b %"}, {"measurement": "seedling emergence (%)", "setting": "Cucumis melo; 10^−13 M", "result": 100, "unit": "b %"}, {"measurement": "seedling emergence (%)", "setting": "Glycine max; 10^−6 M", "result": 65, "unit": "d %"}, {"measurement": "seedling emergence (%)", "setting": "Glycine max; 10^−7 M", "result": 80, "unit": "bc %"}, {"measurement": "seedling emergence (%)", "setting": "Glycine max; 10^−8 M", "result": 90, "unit": "ab %"}, {"measurement": "seedling emergence (%)", "setting": "Glycine max; 10^−9 M", "result": 100, "unit": "a %"}, {"measurement": "seedling emergence (%)", "setting": "Glycine max; 10^−10 M", "result": 70, "unit": "cd %"}, {"measurement": "seedling emergence (%)", "setting": "Glycine max; 10^−11 M", "result": 50, "unit": "e %"}, {"measurement": "seedling emergence (%)", "setting": "Glycine max; 10^−12 M", "result": 80, "unit": "bc %"}, {"measurement": "seedling emergence (%)", "setting": "Glycine max; 10^−13 M", "result": 70, "unit": "cd %"}, {"measurement": "seedling emergence (%)", "setting": "Glycine max; 10^−14 M", "result": 70, "unit": "cd %"}, {"measurement": "seedling emergence (%)", "setting": "Gossypium sp.; 10^−6 M", "result": 88, "unit": "a %"}, {"measurement": "seedling emergence (%)", "setting": "Gossypium sp.; 10^−7 M", "result": 66, "unit": "ab %"}, {"measurement": "seedling emergence (%)", "setting": "Gossypium sp.; 10^−8 M", "result": 88, "unit": "a %"}, {"measurement": "seedling emergence (%)", "setting": "Gossypium sp.; 10^−9 M", "result": 88, "unit": "a %"}, {"measurement": "seedling emergence (%)", "setting": "Gossypium sp.; 10^−10 M", "result": 88, "unit": "a %"}, {"measurement": "seedling emergence (%)", "setting": "Letuca sativa; 10^−6 M", "result": 45, "unit": "a %"}, {"measurement": "seedling emergence (%)", "setting": "Letuca sativa; 10^−7 M", "result": 35, "unit": "ab %"}, {"measurement": "seedling emergence (%)", "setting": "Letuca sativa; 10^−8 M", "result": 10, "unit": "dc %"}, {"measurement": "seedling emergence (%)", "setting": "Letuca sativa; 10^−9 M", "result": 20, "unit": "bcd %"}, {"measurement": "seedling emergence (%)", "setting": "Letuca sativa; 10^−10 M", "result": 25, "unit": "abcd %"}, {"measurement": "seedling emergence (%)", "setting": "Letuca sativa; 10^−11 M", "result": 26, "unit": "abcd %"}, {"measurement": "seedling emergence (%)", "setting": "Letuca sativa; 10^−12 M", "result": 30, "unit": "abc %"}, {"measurement": "seedling emergence (%)", "setting": "Letuca sativa; 10^−13 M", "result": 5, "unit": "d %"}, {"measurement": "seedling emergence (%)", "setting": "Letuca sativa; 10^−14 M", "result": 10, "unit": "d %"}, {"measurement": "seedling emergence (%)", "setting": "Phaseolus vulgaris; 10^−6 M", "result": 67, "unit": "abc %"}, {"measurement": "seedling emergence (%)", "setting": "Phaseolus vulgaris; 10^−7 M", "result": 89, "unit": "a %"}, {"measurement": "seedling emergence (%)", "setting": "Phaseolus vulgaris; 10^−8 M", "result": 78, "unit": "ab %"}, {"measurement": "seedling emergence (%)", "setting": "Phaseolus vulgaris; 10^−9 M", "result": 67, "unit": "abc %"}, {"measurement": "seedling emergence (%)", "setting": "Phaseolus vulgaris; 10^−10 M", "result": 44, "unit": "abc %"}, {"measurement": "seedling emergence (%)", "setting": "Phaseolus vulgaris; 10^−11 M", "result": 22, "unit": "c %"}, {"measurement": "seedling emergence (%)", "setting": "Phaseolus vulgaris; 10^−12 M", "result": 33, "unit": "bc %"}, {"measurement": "seedling emergence (%)", "setting": "Phaseolus vulgaris; 10^−13 M", "result": 33, "unit": "bc %"}, {"measurement": "seedling emergence (%)", "setting": "Phaseolus vulgaris; 10^−14 M", "result": 33, "unit": "bc %"}, {"measurement": "seedling emergence (%)", "setting": "Zea mays; 10^−6 M", "result": 76, "unit": "ab %"}, {"measurement": "seedling emergence (%)", "setting": "Zea mays; 10^−7 M", "result": 68, "unit": "abc %"}, {"measurement": "seedling emergence (%)", "setting": "Zea mays; 10^−8 M", "result": 84, "unit": "a %"}, {"measurement": "seedling emergence (%)", "setting": "Zea mays; 10^−9 M", "result": 88, "unit": "a %"}, {"measurement": "seedling emergence (%)", "setting": "Zea mays; 10^−10 M", "result": 84, "unit": "a %"}, {"measurement": "seedling emergence (%)", "setting": "Zea mays; 10^−11 M", "result": 68, "unit": "abc %"}, {"measurement": "seedling emergence (%)", "setting": "Zea mays; 10^−12 M", "result": 48, "unit": "abc %"}, {"measurement": "seedling emergence (%)", "setting": "Zea mays; 10^−13 M", "result": 40, "unit": "c %"}, {"measurement": "seedling emergence (%)", "setting": "Zea mays; 10^−14 M", "result": 40, "unit": "c %"}, {"measurement": "seedling emergence", "setting": "Brassica napus; 10^−6M", "result": 35, "unit": "bc"}, {"measurement": "seedling emergence", "setting": "Brassica napus; 10^−7M", "result": 32, "unit": "c"}, {"measurement": "seedling emergence", "setting": "Brassica napus; 10^−8M", "result": 35, "unit": "bc"}, {"measurement": "seedling emergence", "setting": "Brassica napus; 10^−9M", "result": 52, "unit": "ab"}, {"measurement": "seedling emergence", "setting": "Brassica napus; 10^−10M", "result": 62, "unit": "a"}, {"measurement": "seedling emergence", "setting": "Brassica napus; 10^−11M", "result": 47, "unit": "bc"}, {"measurement": "seedling emergence", "setting": "Brassica napus; 10^−12M", "result": 45, "unit": "bc"}, {"measurement": "seedling emergence", "setting": "Brassica napus; 10^−13M", "result": 37, "unit": "bc"}, {"measurement": "seedling emergence", "setting": "Brassica napus; 10^−14M", "result": 30, "unit": "c"}, {"measurement": "seedling emergence", "setting": "Cucumis sativus; 10^−6M", "result": 65, "unit": "abc"}, {"measurement": "seedling emergence", "setting": "Cucumis sativus; 10^−7M", "result": 85, "unit": "ab"}, {"measurement": "seedling emergence", "setting": "Cucumis sativus; 10^−8M", "result": 80, "unit": "ab"}, {"measurement": "seedling emergence", "setting": "Cucumis sativus; 10^−9M", "result": 70, "unit": "abc"}, {"measurement": "seedling emergence", "setting": "Cucumis sativus; 10^−10M", "result": 50, "unit": "c"}, {"measurement": "seedling emergence", "setting": "Cucumis sativus; 10^−11M", "result": 80, "unit": "ab"}, {"measurement": "seedling emergence", "setting": "Cucumis sativus; 10^−12M", "result": 80, "unit": "ab"}, {"measurement": "seedling emergence", "setting": "Cucumis sativus; 10^−13M", "result": 70, "unit": "abc"}, {"measurement": "seedling emergence", "setting": "Cucumis sativus; 10^−14M", "result": 70, "unit": "abc"}]}]}
